In paper PMC11589570, “Critical assessment of LC3/GABARAP ligands used for degrader development and ligandability of LC3/GABARAP binding pockets” (Nature Communications, 2024):
Like-named read-outs stand apart in the source and are kept apart here.

Biological target: LC3B (Homo sapiens, UniProt Q9GZQ8)
Details: for CSP: LC3B:ligand molar ratio 1:2; for 3D Mapping code: molar ratio 1:2

SMILES: O=C1Nc2ccc(I)cc2C1=Cc1cc(Br)c(O)c(Br)c1 [compound 4]
- Kd: ≥ 200 µM
- CSP induced (I34 HN resonance, molar ratio 10O5:LC3B 1): 0.019
- CSP induced (I34 HN resonance, molar ratio 10O5:LC3B 2): 0.03102
- CSP induced (I34 HN resonance, molar ratio 10O5:LC3B 8): 0.06113
- CSP induced (K51 HN resonance, molar ratio 10O5:LC3B 1): 0.02725
- CSP induced (K51 HN resonance, molar ratio 10O5:LC3B 2): 0.0413
- CSP induced (K51 HN resonance, molar ratio 10O5:LC3B 8): 0.0854
- CSP induced (L82 HN resonance, molar ratio 10O5:LC3B 1): 0.01304
- CSP induced (L82 HN resonance, molar ratio 10O5:LC3B 2): 0.03131
- CSP induced (L82 HN resonance, molar ratio 10O5:LC3B 8): 0.0642
- CSP (LC3B residue A75): 0.00342 ppm
- CSP (LC3B residue A78): 0.00654 ppm
- CSP (LC3B residue A114): 0.006 ppm
- CSP (LC3B residue D19): 0.011 ppm
- CSP (LC3B residue D48): 0.026 ppm
- 3D Mapping code (LC3B residue D48): Light green (intermediate (SD < CSP <2xSD))
- CSP (LC3B residue D56): 0.017 ppm
- 3D Mapping code (LC3B residue D56): Light green (intermediate (SD < CSP <2xSD))
- CSP (LC3B residue D104): 0.00224 ppm
- CSP (LC3B residue D106): 0.00462 ppm
- CSP (LC3B residue E14): 0.00184 ppm
- CSP (LC3B residue E18): 0.00544 ppm
- CSP (LC3B residue E25): 0.018 ppm
- 3D Mapping code (LC3B residue E25): Light green (intermediate (SD < CSP <2xSD))
- CSP (LC3B residue E36): 0.023 ppm
- 3D Mapping code (LC3B residue E36): Light green (intermediate (SD < CSP <2xSD))
- CSP (LC3B residue E41): 0.002 ppm
- CSP (LC3B residue E62): 0.016 ppm
- 3D Mapping code (LC3B residue E62): Light green (intermediate (SD < CSP <2xSD))
- CSP (LC3B residue E97): 0.013 ppm
- CSP (LC3B residue E100): 0.015 ppm
- CSP (LC3B residue E102): 0.00152 ppm
- CSP (LC3B residue E105): 0.00355 ppm
- CSP (LC3B residue E117): 0.010 ppm
- CSP (LC3B residue F07): 0.011 ppm
- CSP (LC3B residue F13): 0.00221 ppm
- CSP (LC3B residue F52): 0.070 ppm
- 3D Mapping code (LC3B residue F52): Orange (strong (2xSD <CSP))
- CSP (LC3B residue F108): 0.00424 ppm
- CSP (LC3B residue F119): 0.003 ppm
- CSP (LC3B residue G40, estimated): 0.006 ppm
- 3D Mapping code (LC3B residue G85): Light green (intermediate (SD < CSP <2xSD))
- CSP (LC3B residue G107): 0.005 ppm
- CSP (LC3B residue H27): 0.018 ppm
- 3D Mapping code (LC3B residue H27): Light green (intermediate (SD < CSP <2xSD))
- CSP (LC3B residue H57): 0.022 ppm
- 3D Mapping code (LC3B residue H57): Light green (intermediate (SD < CSP <2xSD))
- 3D Mapping code (LC3B residue H86): Light green (intermediate (SD < CSP <2xSD))
- CSP (LC3B residue I23): 0.018 ppm
- 3D Mapping code (LC3B residue I23): Light green (intermediate (SD < CSP <2xSD))
- CSP (LC3B residue I31): 0.020 ppm
- 3D Mapping code (LC3B residue I31): Light green (intermediate (SD < CSP <2xSD))
- CSP (LC3B residue I34): 0.026 ppm
- 3D Mapping code (LC3B residue I34): Light green (intermediate (SD < CSP <2xSD))
- CSP (LC3B residue I35): 0.011 ppm
- CSP (LC3B residue I64): 0.035 ppm
- 3D Mapping code (LC3B residue I64): Orange (strong (2xSD <CSP))
- CSP (LC3B residue I66): 0.00535 ppm
- CSP (LC3B residue I67): 0.022 ppm
- 3D Mapping code (LC3B residue I67): Light green (intermediate (SD < CSP <2xSD))
- 3D Mapping code (LC3B residue I95): Light green (intermediate (SD < CSP <2xSD))
- CSP (LC3B residue K08): 0.006 ppm
- CSP (LC3B residue K30): 0.022 ppm
- 3D Mapping code (LC3B residue K30): Light green (intermediate (SD < CSP <2xSD))
- CSP (LC3B residue K39): 0.008 ppm
- CSP (LC3B residue K42): 0.00565 ppm
- CSP (LC3B residue K49): 0.017 ppm
- 3D Mapping code (LC3B residue K49): Light green (intermediate (SD < CSP <2xSD))
- CSP (LC3B residue K51): 0.037 ppm
- 3D Mapping code (LC3B residue K51): Orange (strong (2xSD <CSP))
- CSP (LC3B residue K65): 0.004 ppm
- CSP (LC3B residue K103): 0.011 ppm
- CSP (LC3B residue L22): 0.009 ppm
- CSP (LC3B residue L44): 0.00371 ppm
- CSP (LC3B residue L47): 0.022 ppm
- 3D Mapping code (LC3B residue L47): Light green (intermediate (SD < CSP <2xSD))
- CSP (LC3B residue L53): 0.052 ppm
- 3D Mapping code (LC3B residue L53): Orange (strong (2xSD <CSP))
- CSP (LC3B residue L63): 0.011 ppm
- CSP (LC3B residue L71): 0.011 ppm
- CSP (LC3B residue L73): 0.011 ppm
- 3D Mapping code (LC3B residue L81): Light green (intermediate (SD < CSP <2xSD))
- 3D Mapping code (LC3B residue L82): Light green (intermediate (SD < CSP <2xSD))
- CSP (LC3B residue L109): 0.00462 ppm
- CSP (LC3B residue M01, estimated): 0.002 ppm
- CSP (LC3B residue M60): 0.024 ppm
- 3D Mapping code (LC3B residue M60): Light green (intermediate (SD < CSP <2xSD))
- CSP (LC3B residue M111): 0.018 ppm
- 3D Mapping code (LC3B residue M111): Light green (intermediate (SD < CSP <2xSD))
- CSP (LC3B residue N59): 0.072 ppm
- 3D Mapping code (LC3B residue N59): Orange (strong (2xSD <CSP))
- CSP (LC3B residue N74): 0.002 ppm
- CSP (LC3B residue N76): 0.00173 ppm
- 3D Mapping code (LC3B residue N84): Light green (intermediate (SD < CSP <2xSD))
- CSP (LC3B residue P02, estimated): 0.002 ppm
- CSP (LC3B residue P28, estimated): 0.016 ppm
- 3D Mapping code (LC3B residue P28, CSP estimated): Light green (intermediate (SD < CSP <2xSD))
- CSP (LC3B residue P32, estimated): 0.024 ppm
- 3D Mapping code (LC3B residue P32, CSP estimated): Light green (intermediate (SD < CSP <2xSD))
- CSP (LC3B residue P45, estimated): 0.005 ppm
- CSP (LC3B residue P55, estimated): 0.025 ppm
- 3D Mapping code (LC3B residue P55, CSP estimated): Light green (intermediate (SD < CSP <2xSD))
- CSP (LC3B residue Q09): 0.000424 ppm
- CSP (LC3B residue Q15): 0.00358 ppm
- CSP (LC3B residue Q26): 0.017 ppm
- 3D Mapping code (LC3B residue Q26): Light green (intermediate (SD < CSP <2xSD))
- CSP (LC3B residue Q43): 0.00371 ppm
- CSP (LC3B residue Q72): 0.009 ppm
- CSP (LC3B residue Q77): 0.005 ppm
- CSP (LC3B residue Q116): 0.00122 ppm
- CSP (LC3B residue R10): 0.005 ppm
- CSP (LC3B residue R11): 0.003 ppm
- CSP (LC3B residue R16): 0.013 ppm
- CSP (LC3B residue R21): 0.026 ppm
- 3D Mapping code (LC3B residue R21): Light green (intermediate (SD < CSP <2xSD))
- CSP (LC3B residue R24): 0.014 ppm
- CSP (LC3B residue R37): 0.016 ppm
- CSP (LC3B residue R68): 0.032 ppm
- 3D Mapping code (LC3B residue R68): Orange (strong (2xSD <CSP))
- CSP (LC3B residue R69): 0.020 ppm
- 3D Mapping code (LC3B residue R69): Light green (intermediate (SD < CSP <2xSD))
- CSP (LC3B residue R70): 0.032 ppm
- 3D Mapping code (LC3B residue R70): Orange (strong (2xSD <CSP))
- CSP (LC3B residue S03, estimated): 0.002 ppm
- CSP (LC3B residue S61): 0.017 ppm
- 3D Mapping code (LC3B residue S61): Light green (intermediate (SD < CSP <2xSD))
- 3D Mapping code (LC3B residue S87): Orange (strong (2xSD <CSP))
- 3D Mapping code (LC3B residue S90): Orange (strong (2xSD <CSP))
- 3D Mapping code (LC3B residue S92): Orange (strong (2xSD <CSP))
- CSP (LC3B residue S96): 0.039 ppm
- 3D Mapping code (LC3B residue S96): Orange (strong (2xSD <CSP))
- CSP (LC3B residue S101): 0.011 ppm
- CSP (LC3B residue S115): 0.008 ppm
- CSP (LC3B residue T06): 0.00323 ppm
- CSP (LC3B residue T12): 0.00666 ppm
- CSP (LC3B residue T29, estimated): 0.016 ppm
- 3D Mapping code (LC3B residue T29, CSP estimated): Light green (intermediate (SD < CSP <2xSD))
- CSP (LC3B residue T50): 0.022 ppm
- 3D Mapping code (LC3B residue T50): Light green (intermediate (SD < CSP <2xSD))
- 3D Mapping code (LC3B residue T93): Orange (strong (2xSD <CSP))
- CSP (LC3B residue T118): 0.005 ppm
- CSP (LC3B residue V17): 0.009 ppm
- CSP (LC3B residue V20): 0.010 ppm
- CSP (LC3B residue V33): 0.029 ppm
- 3D Mapping code (LC3B residue V33): Light green (intermediate (SD < CSP <2xSD))
- CSP (LC3B residue V46): 0.008 ppm
- CSP (LC3B residue V54): 0.049 ppm
- 3D Mapping code (LC3B residue V54): Orange (strong (2xSD <CSP))
- CSP (LC3B residue V58): 0.034 ppm
- 3D Mapping code (LC3B residue V58): Orange (strong (2xSD <CSP))
- 3D Mapping code (LC3B residue V83): Orange (strong (2xSD <CSP))
- 3D Mapping code (LC3B residue V89): Light green (intermediate (SD < CSP <2xSD))
- 3D Mapping code (LC3B residue V91, CSP estimated): Orange (strong (2xSD <CSP))
- CSP (LC3B residue V98): 0.013 ppm
- CSP (LC3B residue V112): 0.027 ppm
- 3D Mapping code (LC3B residue V112): Light green (intermediate (SD < CSP <2xSD))
- CSP (LC3B residue Y38): 0.00356 ppm
- CSP (LC3B residue Y99): 0.00251 ppm
- CSP (LC3B residue Y110): 0.037 ppm
- 3D Mapping code (LC3B residue Y110): Orange (strong (2xSD <CSP))
- CSP (LC3B residue Y113): 0.013 ppm
- CSP induced (N59 HN resonance, molar ratio 10O5:LC3B 1): 0.03127
- CSP induced (N59 HN resonance, molar ratio 10O5:LC3B 2): 0.08027
- CSP induced (N59 HN resonance, molar ratio 10O5:LC3B 8): 0.1884
- CSP induced (S90 HN resonance, molar ratio 10O5:LC3B 1): 0.01709
- CSP induced (S90 HN resonance, molar ratio 10O5:LC3B 2): 0.04125
- CSP induced (S90 HN resonance, molar ratio 10O5:LC3B 8): 0.08089
- CSP induced (Y110 HN resonance, molar ratio 10O5:LC3B 1): 0.0222
- CSP induced (Y110 HN resonance, molar ratio 10O5:LC3B 2): 0.03845
- CSP induced (Y110 HN resonance, molar ratio 10O5:LC3B 8): 0.0862
